Laboratory results taken from ChEMBL document CHEMBL4507268 (2021).

Legend:
Conditions in all cases: Compound concentration 1.0 uM
[1] = target: Casein kinase I isoform gamma-2 (Homo sapiens) (UniProt P78368)
[2] = target: Serine/threonine-protein kinase SIK2 (Homo sapiens) (UniProt Q9H0K1)
[3] = target: Rho-associated protein kinase 1 (Homo sapiens) (UniProt Q13464)
[4] = target: MAPK/MAK/MRK overlapping kinase (Homo sapiens) (UniProt Q9UQ07)
[5] = target: 5'-AMP-activated protein kinase catalytic subunit alpha-1 (Homo sapiens) (UniProt Q13131)
[6] = target: Cyclin-dependent kinase 1/cyclin B (Homo sapiens) (UniProt P06493+P14635+Q8WWL7+O95067)
[7] = target: Tyrosine-protein kinase HCK (Homo sapiens) (UniProt P08631)
[8] = target: BDNF/NT-3 growth factors receptor (Homo sapiens) (UniProt Q16620)
[9] = target: T1, Dual specificity mitogen-activated protein kinase kinase 6 (Homo sapiens) (UniProt P52564)
T1 sequence (whole entry): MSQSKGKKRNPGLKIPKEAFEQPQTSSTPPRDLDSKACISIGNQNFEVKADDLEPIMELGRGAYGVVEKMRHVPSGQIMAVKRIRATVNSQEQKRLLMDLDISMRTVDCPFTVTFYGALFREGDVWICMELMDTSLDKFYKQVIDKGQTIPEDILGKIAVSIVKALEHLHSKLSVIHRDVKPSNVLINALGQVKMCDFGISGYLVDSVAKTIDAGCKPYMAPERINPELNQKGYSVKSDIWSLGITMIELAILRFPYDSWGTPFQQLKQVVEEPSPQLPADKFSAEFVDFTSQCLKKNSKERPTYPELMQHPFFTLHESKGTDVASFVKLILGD

[10] = target: Death-associated protein kinase 1 (Homo sapiens) (UniProt P53355)
[11] = target: Serine/threonine-protein kinase 32C (Homo sapiens) (UniProt Q86UX6)
[12] = target: T2, G protein-coupled receptor kinase 3 (Homo sapiens) (UniProt P35626)
T2 sequence (whole entry): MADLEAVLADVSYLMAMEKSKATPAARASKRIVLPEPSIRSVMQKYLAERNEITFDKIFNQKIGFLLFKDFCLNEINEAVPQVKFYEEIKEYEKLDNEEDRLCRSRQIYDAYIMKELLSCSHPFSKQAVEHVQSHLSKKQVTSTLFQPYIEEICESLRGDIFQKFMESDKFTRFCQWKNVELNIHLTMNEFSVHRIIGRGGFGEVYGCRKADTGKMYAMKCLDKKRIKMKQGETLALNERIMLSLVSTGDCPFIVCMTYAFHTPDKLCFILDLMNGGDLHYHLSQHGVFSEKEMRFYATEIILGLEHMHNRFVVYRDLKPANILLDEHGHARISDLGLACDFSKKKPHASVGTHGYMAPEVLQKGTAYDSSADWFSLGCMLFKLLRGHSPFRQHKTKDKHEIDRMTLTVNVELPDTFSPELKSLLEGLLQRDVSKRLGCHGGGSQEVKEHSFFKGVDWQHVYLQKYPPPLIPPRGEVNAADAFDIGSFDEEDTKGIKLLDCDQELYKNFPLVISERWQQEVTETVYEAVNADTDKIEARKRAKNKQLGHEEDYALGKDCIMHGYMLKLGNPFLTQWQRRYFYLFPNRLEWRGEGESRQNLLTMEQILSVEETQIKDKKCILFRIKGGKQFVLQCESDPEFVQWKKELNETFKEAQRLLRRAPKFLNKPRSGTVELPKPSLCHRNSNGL

[13] = target: Tyrosine-protein kinase Blk (Homo sapiens) (UniProt P51451)
[14] = target: Serine/threonine-protein kinase 35 (Homo sapiens) (UniProt Q8TDR2)
[15] = target: Ribosomal protein S6 kinase alpha-6 (Homo sapiens) (UniProt Q9UK32)
[16] = target: T3, Discoidin domain-containing receptor 2 (Homo sapiens) (UniProt Q16832)
T3 sequence (whole entry): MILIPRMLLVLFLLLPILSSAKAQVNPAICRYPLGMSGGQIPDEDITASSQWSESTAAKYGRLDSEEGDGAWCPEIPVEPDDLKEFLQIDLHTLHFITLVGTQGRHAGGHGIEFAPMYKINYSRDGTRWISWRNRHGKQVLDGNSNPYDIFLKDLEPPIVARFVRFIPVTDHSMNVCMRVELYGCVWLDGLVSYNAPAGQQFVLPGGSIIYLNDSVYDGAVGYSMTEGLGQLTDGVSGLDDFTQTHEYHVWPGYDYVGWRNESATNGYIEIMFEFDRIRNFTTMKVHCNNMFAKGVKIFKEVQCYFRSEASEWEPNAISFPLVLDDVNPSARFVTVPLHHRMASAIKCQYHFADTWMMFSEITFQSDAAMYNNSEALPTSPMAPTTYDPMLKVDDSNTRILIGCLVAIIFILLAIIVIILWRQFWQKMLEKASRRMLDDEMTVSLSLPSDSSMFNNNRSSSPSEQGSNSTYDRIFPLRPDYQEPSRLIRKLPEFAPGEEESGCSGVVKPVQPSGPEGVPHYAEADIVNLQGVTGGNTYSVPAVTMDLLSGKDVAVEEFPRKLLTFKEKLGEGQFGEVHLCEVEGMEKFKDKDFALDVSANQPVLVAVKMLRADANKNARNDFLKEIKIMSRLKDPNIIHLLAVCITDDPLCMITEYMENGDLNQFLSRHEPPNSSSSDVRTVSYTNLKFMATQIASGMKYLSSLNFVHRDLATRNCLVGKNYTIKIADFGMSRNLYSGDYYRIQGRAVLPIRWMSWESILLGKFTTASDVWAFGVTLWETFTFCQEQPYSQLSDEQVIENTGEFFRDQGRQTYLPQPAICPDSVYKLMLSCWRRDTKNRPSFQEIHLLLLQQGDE

[17] = target: Proto-oncogene tyrosine-protein kinase ROS (Homo sapiens) (UniProt P08922)

Measured: % residual kinase activity

Chain of BDNF/NT-3 growth factors receptor (Homo sapiens) (Q16620 32-822 limits assumed): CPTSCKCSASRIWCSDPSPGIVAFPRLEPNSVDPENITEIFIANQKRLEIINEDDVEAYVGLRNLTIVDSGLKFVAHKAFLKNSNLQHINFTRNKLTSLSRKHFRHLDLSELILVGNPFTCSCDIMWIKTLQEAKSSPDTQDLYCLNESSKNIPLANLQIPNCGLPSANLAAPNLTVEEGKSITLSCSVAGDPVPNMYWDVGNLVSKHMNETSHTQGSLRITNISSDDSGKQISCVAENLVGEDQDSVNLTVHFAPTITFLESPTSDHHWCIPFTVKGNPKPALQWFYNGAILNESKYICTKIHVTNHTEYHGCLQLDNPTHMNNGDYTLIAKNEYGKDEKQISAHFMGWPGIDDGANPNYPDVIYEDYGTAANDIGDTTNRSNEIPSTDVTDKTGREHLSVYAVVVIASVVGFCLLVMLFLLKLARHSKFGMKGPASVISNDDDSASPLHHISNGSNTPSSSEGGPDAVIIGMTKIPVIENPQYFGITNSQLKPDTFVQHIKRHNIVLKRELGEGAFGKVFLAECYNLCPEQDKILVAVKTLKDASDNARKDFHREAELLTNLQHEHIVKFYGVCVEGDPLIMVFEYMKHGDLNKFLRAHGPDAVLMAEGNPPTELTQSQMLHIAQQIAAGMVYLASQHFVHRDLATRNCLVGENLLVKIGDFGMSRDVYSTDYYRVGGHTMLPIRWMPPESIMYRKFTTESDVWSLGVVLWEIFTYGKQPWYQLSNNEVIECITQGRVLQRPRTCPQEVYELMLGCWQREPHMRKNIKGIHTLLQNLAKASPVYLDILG
Chain of Tyrosine-protein kinase Blk (Homo sapiens) (P51451 2-505 limits assumed): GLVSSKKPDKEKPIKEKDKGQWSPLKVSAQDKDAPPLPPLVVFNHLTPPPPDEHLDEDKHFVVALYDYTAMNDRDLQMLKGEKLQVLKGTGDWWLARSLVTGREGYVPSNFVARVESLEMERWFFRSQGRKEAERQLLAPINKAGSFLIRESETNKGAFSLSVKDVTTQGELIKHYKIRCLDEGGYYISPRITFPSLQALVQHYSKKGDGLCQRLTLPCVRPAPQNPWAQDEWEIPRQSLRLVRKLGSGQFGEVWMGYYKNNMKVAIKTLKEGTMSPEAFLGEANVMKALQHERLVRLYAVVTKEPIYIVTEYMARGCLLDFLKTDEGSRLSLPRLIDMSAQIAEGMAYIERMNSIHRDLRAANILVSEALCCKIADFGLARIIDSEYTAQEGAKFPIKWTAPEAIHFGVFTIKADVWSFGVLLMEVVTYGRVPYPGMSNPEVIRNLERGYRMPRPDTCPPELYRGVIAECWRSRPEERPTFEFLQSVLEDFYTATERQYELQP
Chain of Serine/threonine-protein kinase 35 (Homo sapiens) (Q8TDR2 whole entry): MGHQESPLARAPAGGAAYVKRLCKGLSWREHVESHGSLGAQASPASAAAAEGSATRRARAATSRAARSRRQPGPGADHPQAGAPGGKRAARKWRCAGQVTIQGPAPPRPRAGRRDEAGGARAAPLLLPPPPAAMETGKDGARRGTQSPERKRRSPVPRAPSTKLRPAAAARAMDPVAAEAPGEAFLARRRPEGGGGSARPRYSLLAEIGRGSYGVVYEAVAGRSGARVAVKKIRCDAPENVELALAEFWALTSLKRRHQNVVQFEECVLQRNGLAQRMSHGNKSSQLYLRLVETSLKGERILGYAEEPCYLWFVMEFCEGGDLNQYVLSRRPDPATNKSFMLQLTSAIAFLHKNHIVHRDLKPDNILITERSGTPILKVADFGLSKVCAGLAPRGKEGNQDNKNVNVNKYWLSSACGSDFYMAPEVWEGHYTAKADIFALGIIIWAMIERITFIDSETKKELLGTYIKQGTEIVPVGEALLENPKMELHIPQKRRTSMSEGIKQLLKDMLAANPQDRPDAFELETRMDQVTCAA
Chain of MAPK/MAK/MRK overlapping kinase (Homo sapiens) (Q9UQ07 whole entry): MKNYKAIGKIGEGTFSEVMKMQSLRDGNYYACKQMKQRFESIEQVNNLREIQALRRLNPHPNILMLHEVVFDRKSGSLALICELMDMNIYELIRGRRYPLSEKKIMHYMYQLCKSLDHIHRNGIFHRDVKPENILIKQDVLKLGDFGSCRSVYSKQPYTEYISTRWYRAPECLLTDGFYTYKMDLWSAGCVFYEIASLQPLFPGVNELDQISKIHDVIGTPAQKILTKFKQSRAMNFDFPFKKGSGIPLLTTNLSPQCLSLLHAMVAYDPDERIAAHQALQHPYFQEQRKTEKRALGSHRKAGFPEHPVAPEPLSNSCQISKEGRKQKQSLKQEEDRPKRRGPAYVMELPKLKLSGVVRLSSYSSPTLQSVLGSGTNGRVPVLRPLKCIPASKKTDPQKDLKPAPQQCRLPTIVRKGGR
Chain of Serine/threonine-protein kinase SIK2 (Homo sapiens) (Q9H0K1 whole entry, looked up): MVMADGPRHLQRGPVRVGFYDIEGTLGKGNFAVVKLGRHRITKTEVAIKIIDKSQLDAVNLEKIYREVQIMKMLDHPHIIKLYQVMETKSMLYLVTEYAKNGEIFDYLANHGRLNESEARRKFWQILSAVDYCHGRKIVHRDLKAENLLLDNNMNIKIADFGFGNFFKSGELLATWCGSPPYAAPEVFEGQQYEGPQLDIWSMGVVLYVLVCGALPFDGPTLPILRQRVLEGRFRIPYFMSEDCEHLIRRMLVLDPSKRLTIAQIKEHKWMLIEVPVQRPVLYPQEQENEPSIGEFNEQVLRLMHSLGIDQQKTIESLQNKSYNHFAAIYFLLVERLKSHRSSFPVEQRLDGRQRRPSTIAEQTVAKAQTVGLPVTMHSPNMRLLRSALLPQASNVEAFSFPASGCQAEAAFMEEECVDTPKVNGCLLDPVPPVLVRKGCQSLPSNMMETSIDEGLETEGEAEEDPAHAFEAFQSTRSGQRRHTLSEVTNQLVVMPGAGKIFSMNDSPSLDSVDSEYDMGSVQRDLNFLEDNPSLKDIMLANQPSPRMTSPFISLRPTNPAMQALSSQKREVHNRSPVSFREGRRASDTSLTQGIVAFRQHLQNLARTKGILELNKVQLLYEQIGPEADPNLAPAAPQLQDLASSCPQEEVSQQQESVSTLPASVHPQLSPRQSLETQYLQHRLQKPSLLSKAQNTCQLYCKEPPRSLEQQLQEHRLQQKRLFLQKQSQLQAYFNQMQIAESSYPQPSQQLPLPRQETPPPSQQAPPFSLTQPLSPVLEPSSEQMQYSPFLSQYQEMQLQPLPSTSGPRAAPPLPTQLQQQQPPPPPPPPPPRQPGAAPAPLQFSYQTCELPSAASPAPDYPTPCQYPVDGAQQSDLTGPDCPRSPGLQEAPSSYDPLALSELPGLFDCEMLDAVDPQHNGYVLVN
Chain of Serine/threonine-protein kinase 32C (Homo sapiens) (Q86UX6 whole entry): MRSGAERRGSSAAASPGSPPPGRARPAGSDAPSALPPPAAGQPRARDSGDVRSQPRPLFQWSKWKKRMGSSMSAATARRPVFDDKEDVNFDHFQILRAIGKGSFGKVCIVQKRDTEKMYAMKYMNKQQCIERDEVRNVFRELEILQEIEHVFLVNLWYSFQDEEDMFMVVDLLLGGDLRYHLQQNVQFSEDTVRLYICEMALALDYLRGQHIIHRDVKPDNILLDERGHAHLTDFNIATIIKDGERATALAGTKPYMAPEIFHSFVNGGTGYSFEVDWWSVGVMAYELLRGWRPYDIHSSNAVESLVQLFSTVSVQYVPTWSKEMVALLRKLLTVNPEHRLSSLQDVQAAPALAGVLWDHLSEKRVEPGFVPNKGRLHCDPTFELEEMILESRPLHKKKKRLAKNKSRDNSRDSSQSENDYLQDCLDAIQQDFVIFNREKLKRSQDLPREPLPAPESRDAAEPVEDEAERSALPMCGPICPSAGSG
Chain of Casein kinase I isoform gamma-2 (Homo sapiens) (P78368 whole entry, looked up, canonical isoform): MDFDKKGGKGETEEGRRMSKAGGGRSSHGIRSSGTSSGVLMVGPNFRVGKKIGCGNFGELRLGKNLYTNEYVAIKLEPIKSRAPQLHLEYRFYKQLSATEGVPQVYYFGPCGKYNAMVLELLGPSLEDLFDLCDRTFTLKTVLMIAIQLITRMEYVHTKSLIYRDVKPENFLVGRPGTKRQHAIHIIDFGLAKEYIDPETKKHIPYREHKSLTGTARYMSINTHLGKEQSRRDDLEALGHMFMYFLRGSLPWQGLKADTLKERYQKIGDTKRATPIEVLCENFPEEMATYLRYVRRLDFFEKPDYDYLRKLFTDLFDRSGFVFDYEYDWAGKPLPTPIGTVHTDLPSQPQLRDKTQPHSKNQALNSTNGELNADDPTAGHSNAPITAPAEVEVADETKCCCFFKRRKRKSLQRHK
Chain of Tyrosine-protein kinase HCK (Homo sapiens) (P08631 2-526 limits assumed): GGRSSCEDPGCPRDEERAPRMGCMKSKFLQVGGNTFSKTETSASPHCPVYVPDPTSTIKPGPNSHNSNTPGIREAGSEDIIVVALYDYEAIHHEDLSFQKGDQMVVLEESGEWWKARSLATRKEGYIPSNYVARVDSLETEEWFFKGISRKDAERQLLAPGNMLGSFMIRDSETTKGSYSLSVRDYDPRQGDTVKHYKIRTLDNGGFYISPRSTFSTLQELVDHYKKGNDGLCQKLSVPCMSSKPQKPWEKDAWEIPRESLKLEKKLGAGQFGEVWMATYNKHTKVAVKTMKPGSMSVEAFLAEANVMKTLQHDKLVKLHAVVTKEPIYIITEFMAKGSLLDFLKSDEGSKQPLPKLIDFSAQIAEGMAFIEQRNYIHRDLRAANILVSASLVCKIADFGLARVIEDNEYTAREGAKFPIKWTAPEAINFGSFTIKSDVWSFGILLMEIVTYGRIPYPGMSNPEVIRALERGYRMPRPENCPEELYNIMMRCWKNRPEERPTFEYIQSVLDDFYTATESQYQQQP

CN1CCN(c2cnc3c(C4CCN(C(=O)c5ccc(OC(F)(F)F)cc5N)CC4)ncnc3c2)CC1 [BAY-885]
inactive: [1] 91% | [2] 101% | [3] 112% | [4] 94% | [5] 101% | [6] 101% | [7] 107% | [8] 98% | [9] 99% | [10] 109% | [11] 103% | [12] 92% | [13] 88% | [14] 116% | [15] 103% | [16] 104% | [17] 111%
